Patent US20040067218A1, “Extramedullary adipose tissue cells and use thereof for regenerating hematopoietic and muscular tissue” (priority 2001, published 2004)

Tests used:
[1] = tested on: muscarinic acetylcholine receptors; assay: Spontaneous contractile activity of cardiomyocytes differentiated from vascular stroma cells (muscarinic agents); type: cell-based, mouse; details: untreated = 100%
Procedure: (§1) Cells of the vascular stroma, isolated as described in Example 1.2, are cultured in the methylcellulose-based semi-solid medium as defined above (Example 1.8).
(§2) The cardiomyocytes are also detected by their spontaneous contractile activity in the presence or absence of agonists or antagonists of muscarinic acetylcholine receptors (carbamylcholine and atropine, respectively) or β-adrenergic receptors (isoproterenol and propranolol, respectively).
(§3) More precisely, 1 ml of DMEM medium containing carbamylcholine (2 μM), atropine (10 μM), isoproterenol (10 μM) or propranolol (40 μM) is added to the methyl-cellulose-based medium. After incubation for 5 min, necessary for diffusion of the molecules, the excess buffer is removed and the cell contractions are counted under the microscope for one minute.
(§4) The values correspond to the mean of 3 independent measurements.

β-adrenergic receptors = assay: Spontaneous contractile activity of cardiomyocytes differentiated from vascular stroma cells (β-adrenergic agents); type: cell-based, mouse; details: untreated = 100%
Procedure: as §1, §2, §3, §4

For `CN1[C@@H]2CC[C@H]1C[C@@H](OC(=O)C(CO)c1ccccc1)C2` (stereo partly shown) [Atropine, atropine], the Contractions ([1]; atropine (10 μM) added with carbamylcholine (2 μM), mean of 3) was 106%.

For `C[N+](C)(C)CCOC(N)=O.[Cl-]` [Carbamylcholine, carbamylcholine], the Contractions ([1]; carbamylcholine (2 μM) alone, mean of 3 independent measurements) was 53%.

With `CC(C)NCC(O)c1ccc(O)c(O)c1` (stereo not shown) [Isoproterenol, isoproterenol] the Contractions (β-adrenergic receptors; isoproterenol (10 μM) alone, mean of 3 independent measurements) was 160%.

With `CC(C)NCC(O)COc1cccc2ccccc12` (stereo not shown) [Propranolol, propranolol] the Contractions (β-adrenergic receptors; propranolol (40 μM) added with isoproterenol (10 μM), mean of 3) was 100%.
